The record followed here is patent EP4682145A1, “BENZOHETEROCYCLIC COMPOUND, AND PREPARATION METHOD THEREFOR AND USE THEREOF” (Cascade Pharmaceuticals, Inc., priority 2023, dated 2024).

One data set addresses T1, human FFAR1 (GPR40) (Homo sapiens, UniProt O14842).
T1 construct: Flag; expressed in transfected cells; host or cells: HEK293T
Nature of the data set: NFAT-RE-based reporter gene activity assay (Dual-Glo luciferase) for GPR40 agonistic activity in co-transfected HEK293T cells. The following applies: 4-hour treatment. In kind it is cell-based. The procedure, abridged: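 Agonism read as NFAT-RE-driven firefly luciferase over Renilla control (Dual-Glo) after 4 h compound exposure, top concentration 1 µM, 10 half-log steps.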
(In general: Reporter assays use an easily measured gene product as a stand-in for the process of interest.)

In data set [1] the test system is normal male C57BL6/J mice. The data set can be described thus: In vivo hypoglycemia risk assay in fasted normal C57BL6/J mice. The following applies: for Blood Glucose / AUC 0-120 minutes: fasted 16 hours; for AUC 0-120 minutes: blood glucose AUC. As to the method:
The blank control group was orally administered with the vehicle control (2% DMO + 15% solutol + 83% DDW solution), with a dosing volume of 10 mL/kg. […] […] Data were expressed as mean ± standard deviation. One-way ANOVA was employed for statistical analysis, with p < 0.05 considered statistically significant.

A word on the EC50: it is the concentration needed to bring the measured effect to its halfway point. A higher EC50 goes with lower potency in that assay.

T1 sequence (O14842 whole entry): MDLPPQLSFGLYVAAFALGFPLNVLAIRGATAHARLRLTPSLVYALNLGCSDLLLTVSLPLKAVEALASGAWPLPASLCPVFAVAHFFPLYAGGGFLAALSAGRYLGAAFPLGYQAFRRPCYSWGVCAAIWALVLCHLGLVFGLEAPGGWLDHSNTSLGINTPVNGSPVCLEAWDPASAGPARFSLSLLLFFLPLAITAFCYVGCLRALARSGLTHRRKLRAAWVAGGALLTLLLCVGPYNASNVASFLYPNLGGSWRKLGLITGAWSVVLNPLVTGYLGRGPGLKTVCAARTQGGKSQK

Turning to `COc1ccc(F)c(N2CCC(c3oc4cc([C@@H](CC(=O)O)C5CC5)ccc4c3-c3ccc(C(C)(C)C)cc3)CC2)c1` [Compound 169], the EC50 on human FFAR1 (GPR40) was in the range of 100 to 500 nM. The “Efficacy (%)” value at human FFAR1 (GPR40) (class symbols) is reported as “††† (Efficacy (%) > 150)”. Moreover, the “Blood Glucose” value came to 4.3 ± 0.59 mmol/L in data set [1] (3 mg/kg oral, 0 minutes after administration); 5.42 ± 0.56 mmol/L in data set [1] (3 mg/kg oral, 30 minutes after administration); 4.73 ± 0.82 mmol/L in data set [1] (3 mg/kg oral, 60 minutes after administration); 4.1 ± 0.51 mmol/L in data set [1] (3 mg/kg oral, 120 minutes after administration); 4.65 ± 0.75 mmol/L in data set [1] (10 mg/kg oral, 0 minutes after administration); 6.1 ± 1.01 mmol/L in data set [1] (10 mg/kg oral, 30 minutes after administration). Further, the “Blood Glucose” value in data set [1] (10 mg/kg oral, 60 minutes after administration) turned out to be 4.92 ± 1.01 mmol/L; in data set [1] (10 mg/kg oral, 120 minutes after administration), 4 ± 0.87 mmol/L. In addition, the figures for the “AUC 0-120 minutes” value in data set [1] (3 mg/kg oral) and in data set [1] (10 mg/kg oral) were 563 ± 34.91 mmol·min and 594 ± 49.00 mmol·min, respectively. For the same compound, the risk of hypoglycemia entry in data set [1] (judged from AUC0-120 min versus blank control, Glibenclamide 10 mg/kg, compound 169 at 3 mg/kg and 10 mg/kg) is reported as “no risk of hypoglycemia”.
